From PubChem BioAssay AID248 (DTP/NCI, 2004)
Where “and” joins values, the source holds several entries; their conditions need not be identical. Equal values may be shown once. Toxic doses and inconclusive results are not listed. Rule as the data show it: active = T/C of 150% or more; inactive = T/C below 125%.

System: L1210 leukemia ip in BDF1 mice, survival T/C
Test: NCI In Vivo Anticancer Drug Screen. Data for tumor model L1210 Leukemia (intraperitoneal) in B6D2F1 (BDF1) mice
Details: endpoint: mean survival time, higher = longer survival
Procedure, shortened: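 Read-out is survival time, reported as the treated-group measurement over the vehicle-control measurement.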

[1] = dose: 100.0 mg/kg/injection, schedule: Q04DX003 (ip), vehicle: Klucel (hydroxypropylcellulose) (HPC)
[2] = dose: 200.0 mg/kg/injection, schedule: Q04DX003 (ip), vehicle: Klucel (hydroxypropylcellulose) (HPC)
[3] = dose: 400.0 mg/kg/injection, schedule: Q04DX003 (ip), vehicle: Klucel (hydroxypropylcellulose) (HPC)
[4] = dose: 100.0 mg/kg/injection, schedule: Q01DX001 (ip), vehicle: saline
[5] = dose: 200.0 mg/kg/injection, schedule: Q01DX001 (ip), vehicle: saline
[6] = dose: 400.0 mg/kg/injection, schedule: Q01DX001 (ip), vehicle: saline
[7] = dose: 25.0 mg/kg/injection, schedule: Q01DX009 (ip), vehicle: saline
[8] = dose: 50.0 mg/kg/injection, schedule: Q01DX009 (ip), vehicle: saline
[9] = dose: 50.0 mg/kg/injection, schedule: Q01DX001 (ip), vehicle: Klucel (hydroxypropylcellulose) (HPC)
[10] = dose: 100.0 mg/kg/injection, schedule: Q01DX001 (ip), vehicle: Klucel (hydroxypropylcellulose) (HPC)
[11] = dose: 100.0 mg/kg/injection, schedule: Q01DX009 (ip), vehicle: Klucel (hydroxypropylcellulose) (HPC)
[12] = dose: 200.0 mg/kg/injection, schedule: Q01DX001 (ip), vehicle: Klucel (hydroxypropylcellulose) (HPC)
[13] = dose: 200.0 mg/kg/injection, schedule: Q01DX009 (ip), vehicle: Klucel (hydroxypropylcellulose) (HPC)
[14] = dose: 400.0 mg/kg/injection, schedule: Q01DX001 (ip), vehicle: Klucel (hydroxypropylcellulose) (HPC)
[15] = dose: 100.0 mg/kg/injection, schedule: Q04DX002 (ip), vehicle: saline with Tween-80
[16] = dose: 200.0 mg/kg/injection, schedule: Q04DX002 (ip), vehicle: saline with Tween-80
[17] = dose: 400.0 mg/kg/injection, schedule: Q01DX009 (ip), vehicle: Klucel (hydroxypropylcellulose) (HPC)
[18] = dose: 100.0 mg/kg/injection, schedule: Q01DX001 (ip), vehicle: saline with Tween-80
[19] = dose: 200.0 mg/kg/injection, schedule: Q01DX001 (ip), vehicle: saline with Tween-80
[20] = dose: 100.0 mg/kg/injection, schedule: Q01DX001 (ip), vehicle: carboxymethylcellulose (CMC)
[21] = dose: 200.0 mg/kg/injection, schedule: Q01DX001 (ip), vehicle: carboxymethylcellulose (CMC)
[22] = dose: 400.0 mg/kg/injection, schedule: Q01DX001 (ip), vehicle: carboxymethylcellulose (CMC)
[23] = dose: 50.0 mg/kg/injection, schedule: Q01DX001 (ip), vehicle: carboxymethylcellulose (CMC)
[24] = dose: 100.0 mg/kg/injection, schedule: Q04DX002 (ip), vehicle: Klucel (hydroxypropylcellulose) (HPC)
[25] = dose: 200.0 mg/kg/injection, schedule: Q04DX002 (ip), vehicle: Klucel (hydroxypropylcellulose) (HPC)
[26] = dose: 400.0 mg/kg/injection, schedule: Q04DX002 (ip), vehicle: Klucel (hydroxypropylcellulose) (HPC)

Measured: T/C

Cc1cccc(SC(=O)Nc2cc([N+](=O)[O-])ccc2C)c1
inactive: [1] 92 % of control | [2] 98 % of control | [3] 97 % of control

CCN(CC)c1cc(C)c2cc(Cc3ccc4nc(N(CC)CC)cc(C)c4c3)ccc2n1
inactive: [4] 90 % of control | [5] 96 % of control | [6] 90 % of control

Fc1c(F)c(F)c(Oc2c(F)c(F)c3c(c2F)C2C=CC3O2)c(F)c1F (configuration not stated)
inactive: dose: 50.0 mg/kg/injection, schedule: Q04DX003 (ip), vehicle: Klucel (hydroxypropylcellulose) (HPC) 95 % of control | [1] 93 % of control | [2] 93 % of control

CCC(C)C(C(=O)OCCC[N+]1(C)CCCCC1)c1ccccc1 (configuration not stated)
inactive: dose: 12.5 mg/kg/injection, schedule: Q01DX009 (ip), vehicle: saline 96 % of control | dose: 12.5 mg/kg/injection, schedule: Q04DX003 (ip), vehicle: saline 96 % of control | [7] 100 % of control | dose: 25.0 mg/kg/injection, schedule: Q04DX003 (ip), vehicle: saline 96 % of control | [8] 94 % of control | dose: 50.0 mg/kg/injection, schedule: Q04DX003 (ip), vehicle: saline 94 % of control

O=C(CC1OCCO1)c1ccccc1
inactive: dose: 50.0 mg/kg/injection, schedule: Q04DX002 (ip), vehicle: saline 95 % of control | dose: 100.0 mg/kg/injection, schedule: Q04DX002 (ip), vehicle: saline 89 % of control | dose: 200.0 mg/kg/injection, schedule: Q04DX002 (ip), vehicle: saline 95 % of control | dose: 400.0 mg/kg/injection, schedule: Q04DX002 (ip), vehicle: saline 95 % of control

O=C(NC(=O)C(Cl)Cl)OC1c2ccccc2-c2ccccc21
inactive: [9] 95 % of control | [10] 100 % of control | [11] 90 % of control | [1] 96 % of control | [12] 94 % of control | [13] 93 % of control | [2] 96 % of control | [14] 92 % of control | [3] 95 % of control

CCCCCCC(CCC)CCCCCC
inactive: [15] 98 % of control | [16] 104 % of control | dose: 400.0 mg/kg/injection, schedule: Q04DX002 (ip), vehicle: saline with Tween-80 98 % of control

BrC1=C(c2ccccc2)C2CCCCC2C1(Br)c1ccccc1 (configuration not stated)
inactive: [11] 103 % of control | [13] 105 % of control | [17] 114 % of control

O=C(OCCCC(C(=O)c1ccccc1)=P(c1ccccc1)(c1ccccc1)c1ccccc1)c1ccccc1
inactive: [18] 104 % of control | [19] 93 % of control | dose: 400.0 mg/kg/injection, schedule: Q01DX001 (ip), vehicle: saline with Tween-80 93 % of control

CCOC(=O)c1[nH]c(-c2ccccc2)c(/C=N\O)c1-c1ccccc1
inactive: [9] 105 % of control | [10] 100 % of control | [12] 93 % of control

O=C(O)c1cccc(Sc2ccccc2)c1
inactive: [20] 100 % of control | [21] 90 % of control | [22] 102 % of control

O=C1c2ccccc2-c2cccc3ccc(Cc4ccccc4)c1c23
inactive: [18] 88 % of control | [19] 92 % of control

CC(=O)C1=CCCCC1
inactive: [1] 96 % of control | [2] 105 % of control | [3] 93 % of control

O=C(c1ccc([N+](=O)[O-])cc1)C1NC1c1ccc([N+](=O)[O-])cc1 (configuration not stated)
inactive: [23] 108 % of control | [20] 100 % of control | [21] 105 % of control | [22] 97 % of control

COC(=O)c1nc(Cl)nc(I)c1Cl
inactive: dose: 12.5 mg/kg/injection, schedule: Q01DX001 (ip), vehicle: other 102 % of control | dose: 25.0 mg/kg/injection, schedule: Q01DX001 (ip), vehicle: other 90 % of control

COc1ccc(C=C2C3C=CC2C2C(=O)OC(=O)C32)cc1 (configuration not stated)
inactive: [11] 101 % of control | [1] 99 % of control | [13] 97 % of control | [2] 99 % of control | [3] 89 % of control

c1ccc(NP2(Nc3ccccc3)=NP(Nc3ccccc3)(Nc3ccccc3)=NP(Nc3ccccc3)(Nc3ccccc3)=N2)cc1
inactive: dose: 75.0 mg/kg/injection, schedule: Q01DX001 (ip), vehicle: saline 96 % of control | [1] 99 % of control | dose: 150.0 mg/kg/injection, schedule: Q01DX001 (ip), vehicle: saline 101 % of control | [2] 89 % of control | dose: 300.0 mg/kg/injection, schedule: Q01DX001 (ip), vehicle: saline 91 % of control

O=[N+]([O-])c1ccc2cnn(CCCl)c2c1
inactive: [20] 94 % of control | [21] 100 % of control | [22] 108 % of control

Cc1ccc(NC(=O)NCCO)cc1C
inactive: [15] 95 % of control | [16] 95 % of control

O=C(O)c1ccc(CCl)cc1
inactive: [15] 108 % of control | [16] 105 % of control

CCN(CC)CC(=O)NCC(CCN1CCCC1)(c1cccc2ccccc12)C(C)C (configuration not stated)
inactive: [7] 101 % of control | [8] 98 % of control | dose: 100.0 mg/kg/injection, schedule: Q01DX009 (ip), vehicle: saline 101 % of control

COc1ccc(NC(=S)N(CCC#N)C2CCCCC2)cc1
inactive: [24] 101 % of control | [25] 94 % of control | [26] 90 % of control

Cc1ccc(CCC(=O)O)c2ccccc12
inactive: [24] 93 % of control | [25] 87 % of control

ClCc1cc(OCc2ccccc2)ccc1OCc1ccccc1
inactive: dose: 75.0 mg/kg/injection, schedule: Q04DX003 (ip), vehicle: Klucel (hydroxypropylcellulose) (HPC) 86 % of control | [10] 101 % of control | dose: 150.0 mg/kg/injection, schedule: Q04DX003 (ip), vehicle: Klucel (hydroxypropylcellulose) (HPC) 91 % of control | [12] 94 % of control | dose: 300.0 mg/kg/injection, schedule: Q04DX003 (ip), vehicle: Klucel (hydroxypropylcellulose) (HPC) 86 % of control | [14] 97 % of control

NC(=O)c1ccccc1NC(=O)Nc1cc(C(F)(F)F)ccc1Cl
inactive: [11] 96 % of control | [13] 86 % of control | [17] 97 % of control

CCCCCCCNC1=C(C)C(=O)C(NCCCCCCC)=C(C)C1=O
inactive: [20] 96 % of control | [4] 93 % of control | [21] 96 % of control | [5] 96 % of control | [22] 89 % of control | [6] 93 % of control

O=C(Nc1cccc(Cl)c1)Oc1ccc(C2CCCCC2)cc1
inactive: [24] 104 % of control | [25] 99 % of control | [26] 101 % of control

OCCNc1nc2ccccc2c2ccccc12
inactive: dose: 75.0 mg/kg/injection, schedule: Q01DX001 (ip), vehicle: carboxymethylcellulose (CMC) 98 % of control | dose: 150.0 mg/kg/injection, schedule: Q01DX001 (ip), vehicle: carboxymethylcellulose (CMC) 112 % of control

Cc1ccc(CN(CCO)Cc2ccccc2)cc1
inactive: dose: 3.12 mg/kg/injection, schedule: Q01DX009 (ip), vehicle: water 86 % of control | dose: 6.25 mg/kg/injection, schedule: Q01DX009 (ip), vehicle: water 89 % of control | dose: 12.5 mg/kg/injection, schedule: Q01DX009 (ip), vehicle: water 93 % of control and 100 % of control | dose: 50.0 mg/kg/injection, schedule: Q01DX009 (ip), vehicle: water 93 % of control

CC(C)(CCCCC(C)(C)NC(=O)Nc1ccc(Cl)c(Cl)c1)NC(=O)Nc1ccc(Cl)c(Cl)c1
inactive: [20] 92 % of control | [21] 87 % of control

Cn1c[n+](C2OC(CO)C(O)C2O)c2nc(N)[nH]c(=O)c21 (configuration not stated)
inactive: [23] 92 % of control | [20] 92 % of control | [21] 97 % of control | [22] 93 % of control

Cc1ccccc1OP(=S)(NN)Oc1ccccc1C
inactive: [24] 93 % of control | [25] 100 % of control | [26] 100 % of control
